Among the data in patent publication US9499535B2, “Kinase inhibitors” (ORIGENIS GMBH, priority 2011, dated 2016) are IC50 and Ki values, retold here.

The target in one experiment is LRRK2 (Homo sapiens, UniProt Q5S007). In words: LRRK2 assay (LanthaScreen Eu Kinase Binding Assay). To be noted: 5 nM LRRK2, 10 nM tracer 236, RT 1 h; read-out: LRRK2 Activites: IC50. The gist of the method: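 IC50 was derived from a sigmoidal dose-response fit with variable slope, plotting emission ratio against inhibitor concentration. The read-out is loss of FRET between a europium-labelled anti-tag antibody on the kinase and a tracer displaced by inhibitor.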
Chain of LRRK2 (Q5S007 970-2527 limits assumed): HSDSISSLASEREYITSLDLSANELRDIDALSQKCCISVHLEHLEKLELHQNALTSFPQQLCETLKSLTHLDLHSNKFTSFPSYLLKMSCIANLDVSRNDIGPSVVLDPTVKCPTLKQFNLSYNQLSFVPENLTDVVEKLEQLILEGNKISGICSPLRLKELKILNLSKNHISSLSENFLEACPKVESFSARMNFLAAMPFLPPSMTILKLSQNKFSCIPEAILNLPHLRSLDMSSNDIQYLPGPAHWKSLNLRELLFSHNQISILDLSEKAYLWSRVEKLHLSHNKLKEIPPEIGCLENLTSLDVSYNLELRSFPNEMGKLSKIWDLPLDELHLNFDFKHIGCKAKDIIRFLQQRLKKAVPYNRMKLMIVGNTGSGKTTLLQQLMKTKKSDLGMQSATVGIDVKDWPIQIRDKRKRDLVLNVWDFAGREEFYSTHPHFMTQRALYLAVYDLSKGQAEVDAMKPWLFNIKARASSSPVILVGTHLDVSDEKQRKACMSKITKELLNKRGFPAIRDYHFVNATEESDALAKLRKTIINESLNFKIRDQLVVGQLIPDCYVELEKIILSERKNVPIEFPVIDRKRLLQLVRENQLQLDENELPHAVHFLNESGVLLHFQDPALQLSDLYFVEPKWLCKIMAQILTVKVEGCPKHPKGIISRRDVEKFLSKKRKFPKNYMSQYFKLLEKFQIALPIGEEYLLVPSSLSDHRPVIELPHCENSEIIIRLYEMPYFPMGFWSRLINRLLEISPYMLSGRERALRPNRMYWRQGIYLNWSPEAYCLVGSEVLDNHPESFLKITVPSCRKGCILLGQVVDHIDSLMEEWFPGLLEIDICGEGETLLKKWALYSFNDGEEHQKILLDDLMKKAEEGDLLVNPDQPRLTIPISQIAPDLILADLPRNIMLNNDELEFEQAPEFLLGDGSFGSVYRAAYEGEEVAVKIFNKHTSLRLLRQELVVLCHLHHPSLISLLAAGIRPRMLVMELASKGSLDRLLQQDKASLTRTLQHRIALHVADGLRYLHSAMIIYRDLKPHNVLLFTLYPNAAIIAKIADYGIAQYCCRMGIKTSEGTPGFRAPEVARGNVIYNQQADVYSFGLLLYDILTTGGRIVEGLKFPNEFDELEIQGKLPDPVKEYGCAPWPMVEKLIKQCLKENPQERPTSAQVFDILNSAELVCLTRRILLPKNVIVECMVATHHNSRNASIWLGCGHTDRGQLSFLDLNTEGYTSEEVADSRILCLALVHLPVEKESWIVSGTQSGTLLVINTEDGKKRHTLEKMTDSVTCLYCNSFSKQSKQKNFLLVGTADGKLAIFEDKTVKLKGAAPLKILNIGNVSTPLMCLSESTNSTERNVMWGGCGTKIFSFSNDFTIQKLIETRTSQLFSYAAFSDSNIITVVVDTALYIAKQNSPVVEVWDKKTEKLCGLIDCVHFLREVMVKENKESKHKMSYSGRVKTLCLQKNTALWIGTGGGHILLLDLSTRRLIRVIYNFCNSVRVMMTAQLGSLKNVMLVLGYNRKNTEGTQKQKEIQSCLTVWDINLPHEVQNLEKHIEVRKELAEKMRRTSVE

In a further experiment the target is MYLK (Homo sapiens, UniProt Q15746). Briefly: MYLK assay (LanthaScreen Eu Kinase Binding Assay). To be noted: 5 nM MYLK, 30 nM tracer 236, RT 1 h; read-out: MYLK Activites: IC50. An outline of the steps:
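TR-FRET tracer-displacement binding: 5 nM MYLK with 2 nM Eu-anti-GST antibody and 30 nM tracer 236 in kinase buffer A, 1 h at RT. The 665/615 nm emission ratio was plotted against inhibitor concentration; IC50 from variable-slope sigmoidal fit.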
In general terms: TR-FRET usually uses a lanthanide donor and a delayed reading to cut background.

The target of the next experiment is T1, SYK kinase (Homo sapiens, UniProt P43405).
T1 construct: purchased Invitrogen, Carlsbad
Briefly: SYK assay (OMNIA Kinase Assay, Invitrogen). The note with it: apparent Ki calculated from the IC50 using the Cheng-Prusoff equation; 1 mM ATP, 10 μM Peptide Substrate; read-out: SYK Activities: Ki. It is filed as biochemical. An outline of the steps: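 Reaction velocities were measured from kinetic fluorescence reads (360/485 nm, every 30 s over 30 min) of Mg2+-chelated SOX signal. Conditions were 1 mM ATP, 10 μM Omnia Tyr 7 peptide and 0.2 mM DTT at 30° C. Sigmoidal IC50 fits were converted to apparent Ki using Cheng-Prusoff.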

Chain of MYLK (Q15746 whole entry): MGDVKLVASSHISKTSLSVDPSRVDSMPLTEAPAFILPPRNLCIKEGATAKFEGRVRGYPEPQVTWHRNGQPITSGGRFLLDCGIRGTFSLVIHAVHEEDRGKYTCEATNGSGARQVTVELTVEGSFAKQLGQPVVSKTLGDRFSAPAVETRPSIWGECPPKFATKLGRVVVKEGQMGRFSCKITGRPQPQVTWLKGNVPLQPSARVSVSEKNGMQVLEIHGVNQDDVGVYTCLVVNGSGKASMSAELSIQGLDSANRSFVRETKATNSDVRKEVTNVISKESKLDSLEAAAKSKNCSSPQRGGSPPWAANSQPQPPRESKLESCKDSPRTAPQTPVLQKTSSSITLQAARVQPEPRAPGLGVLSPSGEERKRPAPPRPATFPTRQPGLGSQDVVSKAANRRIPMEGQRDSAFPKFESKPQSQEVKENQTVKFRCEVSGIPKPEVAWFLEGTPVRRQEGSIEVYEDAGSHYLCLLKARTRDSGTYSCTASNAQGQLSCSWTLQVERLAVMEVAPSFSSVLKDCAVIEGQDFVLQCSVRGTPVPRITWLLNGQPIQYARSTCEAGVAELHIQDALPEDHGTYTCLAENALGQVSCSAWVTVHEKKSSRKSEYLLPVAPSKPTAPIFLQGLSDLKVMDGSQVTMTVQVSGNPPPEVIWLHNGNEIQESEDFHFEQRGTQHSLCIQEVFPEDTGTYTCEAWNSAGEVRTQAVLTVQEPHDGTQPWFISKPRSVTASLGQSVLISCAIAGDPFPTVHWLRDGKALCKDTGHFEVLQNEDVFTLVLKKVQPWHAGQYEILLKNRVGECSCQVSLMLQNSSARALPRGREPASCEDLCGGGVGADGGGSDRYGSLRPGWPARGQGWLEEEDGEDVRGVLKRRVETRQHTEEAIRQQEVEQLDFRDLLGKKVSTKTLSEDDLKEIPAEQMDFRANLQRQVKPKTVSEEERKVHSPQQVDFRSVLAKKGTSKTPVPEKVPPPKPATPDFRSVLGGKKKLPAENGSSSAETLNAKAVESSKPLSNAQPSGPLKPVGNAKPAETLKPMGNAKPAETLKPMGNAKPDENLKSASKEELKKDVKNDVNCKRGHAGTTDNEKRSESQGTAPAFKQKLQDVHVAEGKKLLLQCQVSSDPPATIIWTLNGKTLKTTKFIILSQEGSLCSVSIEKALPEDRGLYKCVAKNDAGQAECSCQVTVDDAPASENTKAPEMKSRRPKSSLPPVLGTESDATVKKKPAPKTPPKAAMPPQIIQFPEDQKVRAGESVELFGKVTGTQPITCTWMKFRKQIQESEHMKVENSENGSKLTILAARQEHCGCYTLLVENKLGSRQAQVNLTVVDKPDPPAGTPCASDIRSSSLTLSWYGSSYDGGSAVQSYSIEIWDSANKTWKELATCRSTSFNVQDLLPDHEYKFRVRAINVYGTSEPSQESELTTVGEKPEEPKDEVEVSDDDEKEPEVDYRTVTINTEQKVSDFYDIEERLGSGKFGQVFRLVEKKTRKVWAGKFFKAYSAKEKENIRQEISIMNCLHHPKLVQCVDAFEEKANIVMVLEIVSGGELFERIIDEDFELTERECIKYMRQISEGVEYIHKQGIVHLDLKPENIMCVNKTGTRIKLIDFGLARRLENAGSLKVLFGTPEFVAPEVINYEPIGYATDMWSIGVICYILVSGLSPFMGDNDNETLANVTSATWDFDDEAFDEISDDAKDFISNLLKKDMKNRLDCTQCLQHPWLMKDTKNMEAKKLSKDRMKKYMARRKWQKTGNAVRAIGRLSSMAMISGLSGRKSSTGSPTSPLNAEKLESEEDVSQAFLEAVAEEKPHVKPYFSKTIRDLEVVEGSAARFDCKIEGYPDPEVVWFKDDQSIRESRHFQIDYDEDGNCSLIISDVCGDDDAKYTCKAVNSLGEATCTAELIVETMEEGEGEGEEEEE

Consider `COc1cc2nc(Nc3ccc4cn[nH]c4c3)c3n[nH]cc3c2cc1OC` [Example #136, (7,8-Dimethoxy-2H-pyrazolo[3,4-c]quinolin-4-yl)-(1H-indazol-6-yl)-amine], for which the results for the IC50 at LRRK2 and on MYLK were 0.1 to 1 µM and < 5 µM, respectively. At SYK kinase, the Ki is 0.01 to 0.1 µM.

On to `COc1ccc2nc(Nc3ccc(N4CCN(C)CC4)nc3)c3n[nH]cc3c2c1` [Example #165, (8-Methoxy-2H-pyrazolo[3,4-c]quinolin-4-yl)-[6-(4-methyl-piperazin-1-yl)-pyridin-3-yl]-amine], for which the IC50 (in general, the concentration at which inhibition is half-maximal) on LRRK2 is 0.01 to 0.1 µM; on MYLK, < 5 µM. Further, the Ki at SYK kinase was 0.01 to 0.1 µM.

As for `COc1ccc2nc(Nc3ccc(OC)nc3)c3n[nH]cc3c2c1` [Example #206, (8-Methoxy-2H-pyrazolo[3,4-c]quinolin-4-yl)-(6-methoxy-pyridin-3-yl)-amine], the IC50 on LRRK2 was 0.1 to 1 µM; on MYLK, < 5 µM. The Ki on SYK kinase was 0.01 to 0.1 µM.

Turning to `COc1ccc2nc(Nc3ccc(NCCCN(C)C)nc3)c3n[nH]cc3c2c1` [Example #253, N2-(3-(dimethylamino)propyl)-N5-(8-methoxy-2H-pyrazolo[3,4-c]quinolin-4-yl)pyridine-2,5-diamine], the 50% inhibitory concentration (IC50) is 0.1 to 1 µM at LRRK2 and < 5 µM on MYLK. Besides, at SYK kinase, the Ki was 0.1 to 1 µM.

For the molecule `COc1cc(OC)c2nc(Nc3ccc(C(=O)N4CCN(C)CC4)cc3)c3n[nH]cc3c2c1` [Example #283, (4-((6,8-dimethoxy-2H-pyrazolo[3,4-c]quinolin-4-yl)amino)phenyl)(4-methylpiperazin-1-yl)methanone], the half-maximal inhibitory concentration (IC50) was 0.1 to 1 µM on LRRK2 and < 5 µM at MYLK. Also, the Ki on SYK kinase is 0.01 to 0.1 µM.

Consider `COc1ccc2nc(Nc3ccc(NC(C)=O)cc3)c3n[nH]cc3c2c1` [Example #128, N-[4-(8-Methoxy-2H-pyrazolo[3,4-c]quinolin-4-ylamino)-phenyl]-acetamide], for which the half-inhibitory concentration (IC50) is 0.1 to 1 µM at LRRK2 and < 5 µM at MYLK. Further, at SYK kinase, the Ki is 0.01 to 0.1 µM.

In the case of `COc1ccc2nc(Nc3ccc(CO)cc3)c3n[nH]cc3c2c1` [Example #280, (4-((8-methoxy-2H-pyrazolo[3,4-c]quinolin-4-yl)amino)phenyl)methanol], the half-maximal inhibitory concentration (IC50) is 0.1 to 1 µM at LRRK2 and < 5 µM on MYLK. On SYK kinase, the Ki was 0.01 to 0.1 µM.

In the case of `Brc1ccc2nc(Nc3ccc4[nH]cnc4c3)c3n[nH]cc3c2c1` [Example #34, (1H-Benzoimidazol-5-yl)-(8-bromo-2H-pyrazolo[3,4-c]quinolin-4-yl)-amine], the IC50 at LRRK2 is 0.1 to 1 µM; at MYLK, < 5 µM. In addition, at SYK kinase, the Ki was 0.01 to 0.1 µM.

With `COc1cc(OC)c2nc(Nc3ccc(OC)c(OC)c3)c3n[nH]cc3c2c1` [Example #251, (3,4-Dimethoxy-phenyl)-(6,8-dimethoxy-2H-pyrazolo[3,4-c]quinolin-4-yl)-amine], the half-maximal inhibitory concentration (IC50) on LRRK2 is 0.1 to 1 µM; at MYLK, < 5 µM. For the same molecule, on SYK kinase, the Ki was < 0.01 µM.

Regarding `O=C1COc2ccc(Nc3nc4ccc(F)cc4c4cn[nH]c34)cc2N1` [Example #324, 6-((8-fluoro-3H-pyrazolo[3,4-c]quinolin-4-yl)amino)-2H-benzo[b][1,4]oxazin-3(4H)-one], the IC50 on LRRK2 was 0.1 to 1 µM; at MYLK, < 5 µM. Further, at SYK kinase, the Ki was 0.01 to 0.1 µM.

As to `COc1cccc2c1nc(Nc1ccc(N3CCN(C)CC3)cc1)c1n[nH]cc12` [Example #166, (6-Methoxy-2H-pyrazolo[3,4-c]quinolin-4-yl)-[4-(4-methyl-piperazin-1-yl)-phenyl]-amine], the half-inhibitory concentration (IC50) on LRRK2 is 0.1 to 1 µM; at MYLK, < 5 µM. Also, the Ki on SYK kinase was 0.01 to 0.1 µM.

On to `Cc1[nH]nc2c(Nc3ccc(N4CCN(C)CC4)cc3)nc3ccccc3c12` [Example #208, [4-(4-Methyl-piperazin-1-yl)-phenyl]-(1-methyl-2H-pyrazolo[3,4-c]quinolin-4-yl)-amine], for which the values for the IC50 on LRRK2 and on MYLK were 0.1 to 1 µM and < 5 µM, respectively. Moreover, the Ki on SYK kinase is 0.01 to 0.1 µM.

Take `COc1ccc2nc(Nc3ccc(N4CCN(C5CC5)CC4)cc3)c3n[nH]cc3c2c1` [Example #179, [4-(4-Cyclopropyl-piperazin-1-yl)-phenyl]-(8-methoxy-2H-pyrazolo[3,4-c]quinolin-4-yl)-amine]: the results for the half-maximal inhibitory concentration (IC50) on LRRK2 and at MYLK were 0.1 to 1 µM and < 5 µM, respectively. In addition, on SYK kinase, the Ki was 0.01 to 0.1 µM.

Regarding `COc1ccc2nc(Nc3ccc(N4CCN(C(C)(C)C)CC4)cc3)c3n[nH]cc3c2c1` [Example #273, [4-(4-tert-Butyl-piperazin-1-yl)-phenyl]-(8-methoxy-2H-pyrazolo[3,4-c]quinolin-4-yl)-amine], the IC50 is 0.1 to 1 µM on LRRK2 and < 5 µM at MYLK. Also, the Ki at SYK kinase is 0.01 to 0.1 µM.

As for `COc1ccc2nc(Nc3ccc(CN4CCN(C)CC4)cc3)c3n[nH]cc3c2c1` [Example #238, (8-Methoxy-2H-pyrazolo[3,4-c]quinolin-4-yl)-[4-(4-methyl-piperazin-1-ylmethyl)-phenyl]-amine], the values for the IC50 on LRRK2 and at MYLK were 0.1 to 1 µM and < 5 µM, respectively. For the same molecule, at SYK kinase, the Ki was 0.01 to 0.1 µM.

Take `COc1ccc2nc(Nc3cccc([S+](C)[O-])c3)c3n[nH]cc3c2c1` (stereo not drawn) [Example #346, 8-methoxy-N-(3-(methylsulfinyl)phenyl)-2H-pyrazolo[3,4-c]quinolin-4-amine]: the figures for the IC50 at LRRK2 and at MYLK were 0.1 to 1 µM and < 5 µM, respectively. Further, the Ki on SYK kinase was 0.1 to 1 µM.

Consider `COc1ccc2nc(Nc3cnc4c(c3)CN(C)CC4)c3n[nH]cc3c2c1` [Example #230, (8-Methoxy-2H-pyrazolo[3,4-c]quinolin-4-yl)-(6-methyl-5,6,7,8-tetrahydro-[1,6]naphthyridin-3-yl)-amine], for which the half-maximal inhibitory concentration (IC50) on LRRK2 is 0.1 to 1 µM; at MYLK it was < 5 µM. The Ki on SYK kinase is 0.1 to 1 µM.

Turning to `COc1ccc2nc(Nc3ccc(C(=O)N4CCN(C)CC4)cc3)c3n[nH]cc3c2c1` [Example #235, (4-((8-methoxy-2H-pyrazolo[3,4-c]quinolin-4-yl)amino)phenyl)(4-methylpiperazin-1-yl)methanone], the figures for the IC50 at LRRK2 and at MYLK were 0.01 to 0.1 µM and < 5 µM, respectively. At SYK kinase, the Ki was 0.01 to 0.1 µM.

As to `COc1ccc2nc(Nc3ccc4nc(C)[nH]c4c3)c3n[nH]cc3c2c1` [Example #55, (8-Methoxy-2H-pyrazolo[3,4-c]quinolin-4-yl)-(2-methyl-3H-benzoimidazol-5-yl)-amine], the half-inhibitory concentration (IC50) at LRRK2 is 0.1 to 1 µM; at MYLK, < 5 µM. Besides, the Ki on SYK kinase was 0.01 to 0.1 µM.

With `COc1ccc2nc(Nc3ccc(NCCN(C)C)nc3)c3n[nH]cc3c2c1` [Example #254, N2-(2-(dimethylamino)ethyl)-N5-(8-methoxy-2H-pyrazolo[3,4-c]quinolin-4-yl)pyridine-2,5-diamine], the IC50 was 0.1 to 1 µM at LRRK2 and < 5 µM at MYLK. Moreover, on SYK kinase, the Ki was 0.01 to 0.1 µM.

In the case of `COc1ccc2c(c1)nc(Nc1ccc3[nH]c(C)nc3c1)c1n[nH]cc12` [Example #264, (7-Methoxy-2H-pyrazolo[3,4-c]quinolin-4-yl)-(2-methyl-1H-benzoimidazol-5-yl)-amine], the IC50 at LRRK2 was 0.1 to 1 µM; on MYLK, < 5 µM. Besides, the Ki at SYK kinase is 0.01 to 0.1 µM.

Regarding `COc1ccc2nc(Nc3ccc(N4CCN(C)CC4)c(Cl)c3)c3n[nH]cc3c2c1` [Example #195, [3-Chloro-4-(4-methyl-piperazin-1-yl)-phenyl]-(8-methoxy-2H-pyrazolo[3,4-c]quinolin-4-yl)-amine], the IC50 at LRRK2 is 0.1 to 1 µM; at MYLK, < 5 µM. On SYK kinase, the Ki was 0.01 to 0.1 µM.

`COc1ccc2nc(Nc3cnc(N4CCN(C)CC4)nc3)c3n[nH]cc3c2c1` [Example #223, (8-Methoxy-2H-pyrazolo[3,4-c]quinolin-4-yl)-[2-(4-methyl-piperazin-1-yl)-pyrimidin-5-yl]-amine]: the values for the half-maximal inhibitory concentration (IC50) on LRRK2 and at MYLK were 0.1 to 1 µM and < 5 µM, respectively. Also, at SYK kinase, the Ki is 0.1 to 1 µM.

Regarding `COc1ccc2nc(Nc3ccc(-c4nnn[nH]4)cc3)c3[nH]ncc3c2c1` [Example #98, (8-Methoxy-3H-pyrazolo[3,4-c]quinolin-4-yl)-[4-(1H-tetrazol-5-yl)-phenyl]-amine], the IC50 on LRRK2 was 0.1 to 1 µM; on MYLK it was < 5 µM. Moreover, at SYK kinase, the Ki is 0.1 to 1 µM.

For the molecule `COc1ccc2nc(Nc3ccc4[nH]c(=O)[nH]c4c3)c3n[nH]cc3c2c1` [Example #71, 5-(8-Methoxy-2H-pyrazolo[3,4-c]quinolin-4-ylamino)-1,3-dihydro-benzoimidazol-2-one], the half-inhibitory concentration (IC50) at LRRK2 is 0.1 to 1 µM; at MYLK, < 5 µM. Also, the Ki on SYK kinase is 0.01 to 0.1 µM.

Consider `COc1ccc2nc(Nc3ccc(C4=NCCN4)cc3)c3n[nH]cc3c2c1` [Example #86, [4-(4,5-Dihydro-1H-imidazol-2-yl)-phenyl]-(8-methoxy-2H-pyrazolo[3,4-c]quinolin-4-yl)-amine], for which the concentration for half-maximal inhibition (IC50) is 0.1 to 1 µM at LRRK2 and < 5 µM at MYLK. In addition, the Ki at SYK kinase was 0.01 to 0.1 µM.

With `COc1ccc2nc(Nc3ccc(OCC(=O)O)cc3)c3n[nH]cc3c2c1` [Example #290, 2-(4-((8-methoxy-2H-pyrazolo[3,4-c]quinolin-4-yl)amino)phenoxy)acetic acid], the IC50 on LRRK2 is 0.1 to 1 µM; at MYLK it was < 5 µM. For the same molecule, at SYK kinase, the Ki is 0.01 to 0.1 µM.
